Experimental data from patent US8338597B2, “Pyridones useful as inhibitors of kinases” (Vertex Pharmaceuticals Incorporated, priority 2004, dated 2012).

Experiments:
Rlk = molecular target: T1, Rlk (Homo sapiens, UniProt P42681); experiment: RLK inhibition assay, standard coupled enzyme assay; type: biochemical; settings: 100 μM ATP, 40 nM Rlk, 30° C.
T1 sequence (P42681 1-527): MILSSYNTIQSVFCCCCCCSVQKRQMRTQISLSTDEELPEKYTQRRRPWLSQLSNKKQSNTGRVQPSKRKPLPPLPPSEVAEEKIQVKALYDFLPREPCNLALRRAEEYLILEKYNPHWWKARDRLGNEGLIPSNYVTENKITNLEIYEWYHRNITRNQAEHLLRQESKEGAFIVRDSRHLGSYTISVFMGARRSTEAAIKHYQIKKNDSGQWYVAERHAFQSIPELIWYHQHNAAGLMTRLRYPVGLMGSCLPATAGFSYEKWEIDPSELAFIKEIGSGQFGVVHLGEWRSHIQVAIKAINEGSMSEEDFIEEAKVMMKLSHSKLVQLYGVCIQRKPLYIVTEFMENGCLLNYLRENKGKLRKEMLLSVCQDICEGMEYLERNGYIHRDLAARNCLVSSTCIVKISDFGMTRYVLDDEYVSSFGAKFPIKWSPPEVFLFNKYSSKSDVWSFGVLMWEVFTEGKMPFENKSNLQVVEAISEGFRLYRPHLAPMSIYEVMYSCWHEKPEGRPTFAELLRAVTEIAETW
Method: Compounds were screened for their ability to inhibit Rlk using a standard coupled enzyme assay (Fox et al., Protein Sci., (1998) 7, 2249). Assays were carried out in a mixture of 20 mM MOPS (pH 7.0), 10 mM MgCl2, 0.1% BSA and 1 mM DTT. Final substrate concentrations in the assay were 100 μM ATP (Sigma Chemicals) and 10 μM peptide (Poly Glu:Tyr 4:1). Assays were carried out at 30° C. and in the presence of 40 nM Rlk. Final concentrations of the components of the coupled enzyme system were 2.5 mM phosphoenolpyruvate, 300 μM NADH, 30 μg/ml pyruvate kinase and 10 μg/ml lactate dehydrogenase.
An assay stock buffer solution was prepared containing all of the reagents listed above, with the exception of ATP and the test compound of interest. 60 μl of the stock solution was placed in a 96 well plate followed by addition of […] of DMSO stock containing serial dilutions of the test compound (typically starting from a final concentration of 7.5 μM). The plate was preincubated for 10 minutes at 30° C. and the reaction initiated by addition of 5 μl of ATP. Initial reaction rates were determined with a Molecular Devices SpectraMax Plus plate reader over a 10 minute time course. IC50 and Ki data were calculated from non-linear regression analysis using the Prism software package (GraphPad Prism version 3.0cx for Macintosh, GraphPad Software, San Diego Calif., USA).

Itk = molecular target: T2, Itk (Homo sapiens, UniProt Q08881); experiment: ITK inhibition assay, radioactive-phosphate incorporation; type: biochemical; settings: [γ-33P]ATP, SAM68 peptide, 25° C.
T2 sequence (Q08881 1-620): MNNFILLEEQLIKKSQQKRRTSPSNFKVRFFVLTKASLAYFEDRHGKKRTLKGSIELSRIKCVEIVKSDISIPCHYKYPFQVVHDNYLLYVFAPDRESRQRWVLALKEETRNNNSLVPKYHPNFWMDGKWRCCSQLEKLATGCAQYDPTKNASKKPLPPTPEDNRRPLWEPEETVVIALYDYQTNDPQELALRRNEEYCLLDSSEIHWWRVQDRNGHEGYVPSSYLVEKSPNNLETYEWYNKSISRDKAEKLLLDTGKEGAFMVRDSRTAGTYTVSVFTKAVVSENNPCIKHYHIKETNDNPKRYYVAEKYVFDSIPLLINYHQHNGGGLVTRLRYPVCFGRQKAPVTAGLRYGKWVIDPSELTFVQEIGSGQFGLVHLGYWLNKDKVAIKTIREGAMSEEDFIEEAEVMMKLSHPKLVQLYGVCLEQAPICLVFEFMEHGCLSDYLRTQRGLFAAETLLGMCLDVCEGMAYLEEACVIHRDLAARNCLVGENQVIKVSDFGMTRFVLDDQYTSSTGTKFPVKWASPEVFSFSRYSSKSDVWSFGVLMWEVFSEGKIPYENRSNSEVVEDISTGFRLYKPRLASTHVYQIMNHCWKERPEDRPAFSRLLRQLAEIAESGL
Method: Assays were carried out in a mixture of 20 mM MOPS (pH 7.0), 10 mM MgCl2, 0.1% BSA and 1 mM DTT. […] Assays were carried out at 25° C. in the presence of 50 nM Itk. An assay stock buffer solution was prepared containing all of the reagents listed above, with the exception of ATP and the test compound of interest.
The reaction was stopped after 10 minutes by the addition of […] 0.2M phosphoric acid+0.01% TWEEN 20. A multiscreen phosphocellulose filter 96-well plate (Millipore, Cat no. MAPHN0B50) was pretreated with 100 μL 0.2M phosphoric acid+0.01% TWEEN 20 prior to the addition of […] of the stopped assay mixture. The plate was washed with 4×200 μL 0.2M phosphoric acid+0.01% TWEEN 20.
Ki(app) data were calculated from non-linear regression analysis of the initial rate data using the Prism software package (GraphPad Prism version 3.0cx for Macintosh, GraphPad Software, San Diego Calif., USA).

Structure (SMILES)	Ki (Rlk) [µM]	Ki (Itk) [µM]
CNCCN(C)c1nccc(-c2c[nH]c(=O)c(NC(=O)c3ccc(N4CCCCC4)cc3)c2)n1 [II-65]	> 1	< 0.1
CNCCNc1cccc(-c2c[nH]c(=O)c(NC(=O)c3ccc(N4CCCCC4)cc3)c2)c1 [II-75]	> 1	0.1 to 1
CNc1cncc(-c2c[nH]c(=O)c(NC(=O)c3ccc(OCCC4CCNCC4)cc3)c2)n1 [II-143]	> 1	< 0.1
CNc1nccc(-c2c[nH]c(=O)c(NC(=O)c3ccc(N4CCN(CCCOC)CC4)cc3)c2)n1 [II-79]	< 1	< 0.1
CNc1cncc(-c2c[nH]c(=O)c(NC(=O)c3ccc(N4CCN(CCO)CC4)cc3)c2)n1 [II-148]	> 1	< 0.1
CNc1cncc(-c2c[nH]c(=O)c(NC(=O)c3ccc(NCCCn4ccnc4)cc3)c2)n1 [II-168]	> 1	< 0.1
CC(C)(C)c1ccc(C(=O)Nc2cc(-c3ccnc(NC4CCNC4)n3)c[nH]c2=O)cc1 (stereo not shown) [II-30]	< 1	< 0.1
CC(C)(C)c1ccc(C(=O)Nc2cc(C3=CC(=O)CCC3)c[nH]c2=O)cc1 [II-83]	> 1	0.1 to 1
CNCCNc1cc(-c2c[nH]c(=O)c(NC(=O)c3ccc(C(C)(C)C)cc3)c2)ncn1 [II-38]	> 1	0.1 to 1
CNc1cncc(-c2c[nH]c(=O)c(NC(=O)c3ccc(N(C)CCN(C)C)cc3)c2)n1 [II-164]	> 1	< 0.1
CNc1cccc(-c2c[nH]c(=O)c(NC(=O)c3ccc(N4CCCCC4)cc3)c2)n1 [II-47]	> 1	
CC(C)(C)c1ccc(C(=O)Nc2cc(-c3ccnc(NC4CCCNC4)n3)c[nH]c2=O)cc1 (stereo not shown) [II-29]	< 1	< 0.1
CC(C)c1ccc(NC(=O)c2cc(-c3ccncc3)c[nH]c2=O)cc1 [III-4]	> 1	0.1 to 1
CC(C)(C)c1ccc(C(=O)Nc2cc(-c3ccnc(N[C@@H]4CCNC4)n3)c[nH]c2=O)cc1 [II-31]	< 1	< 0.1
CNc1nccc(-c2c[nH]c(=O)c(NC(=O)c3ccc(N4CCN(C(C)=O)CC4)cc3)c2)n1 [II-81]	< 1	< 0.1
CNc1nccc(-c2c[nH]c(=O)c(NC(=O)c3ccc(C(C)(C)C)cc3)c2)n1 [II-14]	< 1	< 0.1
CNCCNc1cccc(-c2c[nH]c(=O)c(NC(=O)c3ccc(C(C)(C)C)cc3)c2)n1 [II-35]	< 1	< 0.1
O=C1C=C(c2c[nH]c(=O)c(NC(=O)c3ccc(N4CCCCC4)cc3)c2)CCC1 [II-85]	> 1	0.1 to 1
CNc1cc(C#N)cc(-c2c[nH]c(=O)c(NC(=O)c3ccc(N4CCC[C@H]4CN4CCCC4)cc3)c2)c1 [II-179]	> 1	< 0.1
CNc1cc(-c2c[nH]c(=O)c(NC(=O)c3ccc(N4CCCCC4)cc3)c2)ncn1 [II-46]	> 1	
CNc1cc(C#N)cc(-c2c[nH]c(=O)c(NC(=O)c3ccc(N4CCNCC4)cc3)c2)n1 [II-160]	> 1	< 0.1
CNc1cc(-c2c[nH]c(=O)c(NC(=O)c3ccc(N4CCCCC4)cc3)c2)ccn1 [II-115]	> 1	
O=C(Nc1cc(-c2cccc(NCCN3CCCC3)n2)c[nH]c1=O)c1ccc(N2CCCCC2)cc1 [II-104]		0.1 to 1
CC(C)(C)c1ccc(C(=O)Nc2cc(-c3cc(N[C@@H]4CCNC4)ncn3)c[nH]c2=O)cc1 [II-39]		0.1 to 1
CCOc1ccc(NC(=O)c2cc(-c3ccncc3)c[nH]c2=O)cc1 [III-45]		0.1 to 1
O=C(Nc1cc(-c2ccncc2)c[nH]c1=O)c1ccc(Br)cc1 [Compound I-20, 4-Bromo-N-(1,2-dihydro-2-oxo-5-(pyridin-4-yl)pyridin-3-yl)benzamide]		0.1 to 1

Structure (SMILES)	Ki (Rlk) [µM]	Ki (Itk) [µM]
CNc1nccc(-c2c[nH]c(=O)c(NC(=O)c3ccc(Cc4ccccc4)cc3)c2)n1 [II-98]		0.1 to 1
CNc1cncc(-c2c[nH]c(=O)c(NC(=O)c3ccc(N4CCC[C@H]4CO)cc3)c2)n1 [II-147]		< 0.1
CNc1cncc(-c2c[nH]c(=O)c(NC(=O)c3ccc(N4CCCCC4)cc3)c2)c1 [II-159]	> 1	
N#Cc1ccnc(-c2c[nH]c(=O)c(NC(=O)c3ccc(N4CCNCC4)cc3)c2)c1 [II-161]		0.1 to 1
CCOc1nccc(-c2c[nH]c(=O)c(NC(=O)c3ccc(N4CCCCC4)cc3)c2)n1 [II-57]		0.1 to 1
CNc1ccnc(-c2c[nH]c(=O)c(NC(=O)c3ccc(N4CCCCC4)cc3)c2)n1 [II-56]		0.1 to 1
O=C(Nc1cc(-c2ccncc2)c[nH]c1=O)c1ccc(Oc2ccccc2)cc1 [Compound I-22]		0.1 to 1
CNc1cc(-c2c[nH]c(=O)c(NC(=O)c3ccc(N4C[C@@H](C)N[C@@H](C)C4)cc3)c2)ncn1 [II-135]		< 0.1
CNc1nccc(-c2c[nH]c(=O)c(NC(=O)c3ccc(OCc4ccccc4)cc3)c2)n1 [II-97]		< 0.1
CNCCNc1cccc(-c2c[nH]c(=O)c(NC(=O)c3ccc(N4CCCCC4)cc3)c2)n1 [II-60]		0.1 to 1
CNc1cncc(-c2c[nH]c(=O)c(NC(=O)c3ccc(N(C)CCc4cnc[nH]4)cc3)c2)n1 [II-165]		< 0.1
CNc1cc(-c2c[nH]c(=O)c(NC(=O)c3ccc(OCC4CCNCC4)cc3)c2)ncn1 [II-170]		< 0.1
CN(C)c1nccc(-c2c[nH]c(=O)c(NC(=O)c3ccc(C(C)(C)C)cc3)c2)n1 [II-21]		0.1 to 1
COc1ccc(NC(=O)c2cc(-c3ccncc3)c[nH]c2=O)cc1 [III-11]		0.1 to 1
CNc1cncc(-c2c[nH]c(=O)c(NC(=O)c3ccc(N4CCC[C@H]4CN4CCCC4)cc3)c2)n1 [II-145]		< 0.1
CNc1cccc(-c2c[nH]c(=O)c(NC(=O)c3ccc(OCCC4CCNCC4)cc3)c2)n1 [II-134]		< 0.1
CC(C)Nc1nccc(-c2c[nH]c(=O)c(NC(=O)c3ccc(C(C)(C)C)cc3)c2)n1 [II-23]		< 0.1
CNc1cncc(-c2c[nH]c(=O)c(NC(=O)c3ccc(N4CCCNCC4)cc3)c2)n1 [II-146]		< 0.1
O=C(Nc1cc(-c2ccncc2)c[nH]c1=O)c1ccc(N2CCC(O)CC2)cc1 [Compound I-72]		0.1 to 1
O=C(Nc1cc(-c2ccncc2)c[nH]c1=O)c1ccc(OCc2ccccc2)cc1 [Compound I-46]		0.1 to 1
CNc1cc(-c2c[nH]c(=O)c(NC(=O)c3ccc(N4CCNCC4)cc3)c2)ncn1 [II-126]		< 0.1
CN(C)c1ccc(C(=O)Nc2cc(-c3ccncc3)c[nH]c2=O)cc1 [Compound I-45]		0.1 to 1
CNc1ncc(C)c(-c2c[nH]c(=O)c(NC(=O)c3ccc(C(C)(C)C)cc3)c2)n1 [II-62]		0.1 to 1
CCNc1cncc(-c2c[nH]c(=O)c(NC(=O)c3ccc(N4CCC[C@H]4CN4CCCC4)cc3)c2)n1 [II-175]		0.1 to 1
CNc1cc(-c2c[nH]c(=O)c(NC(=O)c3ccc(N4CCCCC4)cc3)c2)nc(NC)n1 [II-123]		0.1 to 1
